Test results published in patent US20250110133A1, “METHOD AND KIT FOR PREDICTING DRUG EFFICACY OF LUNG CANCER TREATMENT AND METHOD FOR TREATING LUNG CANCER” (National Health Research Institutes, priority 2023, published 2025).
Entries after “also recorded” stand apart in the source; their conditions may differ. Like-named read-outs stand apart in the source and are kept apart here.

How the values were obtained:
[1] = system: PC9 cells; test: Colony formation assay for gefitinib sensitivity; format: cell-based, human; conditions: 10-day treatment
Protocol: Data are presented as mean±standard error of mean, n=3. Differences between shLDOC1 and shCtrl at each indicated concentration are analyzed using Student's t test; * p<0.05 and ** p<0.01.

[2] = system: HCC827 cells; test: cells; conditions: Homo sapiens, HCC827, 72 h, read-out: half-maximal inhibitory concentration (IC50)
Protocol: (§1) The HCC827 cell line is provided by Dr. Yi-Rong Chen from the Institute of Molecular and Genomic Medicine, National Health Research Institutes, Taiwan. […] PC9 and HCC827 cells are maintained in RPMI1640 (Cytiva). […] All cells are cultured in media containing 10% FBS (Gibco), 1% penicillin (Thermo Fisher, Waltham, MA, USA), and 1% streptomycin (Thermo Fisher); the cells are incubated at 37° C. in a humidified chamber with 5% CO2. […] The cells are checked for Mycoplasma (BioSmart, Seoul, Republic of Korea) upon thawing, and throughout the experimental period they consistently tested negative for Mycoplasma.
(§2) Cells are seeded at a density of 5×10^3 per well in a 96-well plate. […] An appropriate amount of DMSO is also added to the control cells. After 72 h of treatment, the cells are incubated with a solution of MTT (3-(4,5-dimethylthiazol-2-yl)-2,5-diphenyltetrazolium bromide) (Sigma-Aldrich) for 4 h at 37° C. Subsequently, the medium is aspirated, and 100 μL DMSO is added to solubilize the formazan. Colored formazan converted from MTT using viable cells is measured at 570 nm with a microplate reader (BioRad). Experiments are performed in triplicate. IC50 values are determined using the scientific and statistical software GraphPad Prism 10.0.0.

[3] = system: PC9 cells
Protocol: (§3) Cells were seeded in 96-well cell culture plates and treated the next day with the indicated concentrations of indicated EGFR-TKI. After 3 days, cell numbers were determined with MTT assay.
(§4) All cells are cultured in media containing 10% FBS (Gibco), 1% penicillin (Thermo Fisher, Waltham, MA, USA), and 1% streptomycin (Thermo Fisher); the cells are incubated at 37° C. in a humidified chamber with 5% CO2.
as §2

[4] = system: HCC827 cells; conditions: read-out: half-maximal inhibitory concentration (IC50)
Protocol: as §1, §2

[5] = system: PC9 cells; test: cells; conditions: Homo sapiens, PC-9, 72 h, read-out: half-maximal inhibitory concentration (IC50)
Protocol: as §3, §4, §2

Row | Structure (SMILES) | colony formation under drug treatment ([1]; LDOC1-depleted (shLDOC1) PC9 cells) | colony formation under drug treatment ([1]; PC9-shCtrl cells) | IC50 [2] | IC50 / inhibitory effect in shLDOC1 cells compared with shCtrl cells [3] | IC50 [4] | IC50 [5]
1 | COc1cc2ncnc(Nc3ccc(F)c(Cl)c3)c2cc1OCCCN1CCOCC1 [gefitinib] | increased the number of cell colonies; also recorded: survive and form colonies | no colonies |  |  |  | 
2 | C=CC(=O)Nc1cc(Nc2nccc(-c3cn(C)c4ccccc34)n2)c(OC)cc1N(C)CCN(C)C [osimertinib] |  |  | 1800 nM | almost the same inhibitory effect | 2300 nM | 900 nM
